PubChem BioAssay (NCI)
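Five compound concentrations were applied to cells in 96-well plates for 48 hours; endpoints were derived by simple linear interpolation of the resulting dose-response curve. GI50: concentration for 50% inhibition of growth. Definition used: TGI = concentration required for complete inhibition of growth.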 Where a SMILES comes first, the peptide text is derived from it. The star is where a group is joined. Cbz = O=C(OCc1ccccc1)*; CH2Cl = ClC*

Tested on: SF-268 CNS
Assay: DTP human tumour cell line panel, 48 h

Question: For `O=C(O)Cc1cc(Cl)ccc1O`, which TGI is on record?
Answer: > 100 µM

Question: `O=C(c1ccccc1)c1cc2ccccc2o1` was tested. Which GI50 did it give?
Answer: 70.3 µM

Question: What about the TGI of the same compound?
Answer: > 100 µM

Question: For `O=C(Nc1ccncc1)C(=O)c1cn(S(=O)(=O)c2ccc(F)cc2)c2ccccc12`, which GI50 is on record?
Answer: 4.4 µM

Question: What about the TGI of the same compound?
Answer: > 100 µM

Question: What does the source list for `COc1ccc(C(=O)/C=C/c2cc(-c3cc(OC)c(OC)c(OC)c3)n[nH]2)cc1OC`?
Answer: GI50: 1.82 µM; TGI: 3.96 µM

Question: With `C=C(C)[C@@H]1CC[C@]2(C)[C@H](CC=C3[C@@H]4CC(C)(C)CC[C@]4(C(N)=O)CC[C@]32C)[C@@]1(C)CCC#N` as the compound, how does the GI50 read?
Answer: 5.28 µM

Question: And the TGI?
Answer: > 100 µM

Question: For `COc1c(OC[C@H](O)CN2CCOCC2)ccc2c3n(c(=NC(=O)c4cccnc4C)nc12)CCN3`, which GI50 is on record?
Answer: 12.4 µM

Question: What about the TGI of the same compound?
Answer: > 50 µM

Question: With `COc1ccc(-c2nc3ccc(-c4nc5ccc(N6CCN(c7ccccc7)CC6)cc5[nH]4)cc3[nH]2)cc1OC` as the compound, how does the GI50 read?
Answer: 2.12 µM

Question: What about the TGI of the same compound?
Answer: 4.68 µM

Question: `O=C(N[C@@H](c1ccc(Cl)c(Cl)c1)C1CNC1)c1ccc2cnccc2c1` was tested. Which GI50 did it give?
Answer: 0.924 µM

Question: What about the TGI of the same compound?
Answer: 3.16 µM

Question: What does the source list for `CO/N=C(\COc1ccc2c(c1)oc(=O)c1cc(OC)ccc12)c1ccc(OC)cc1`?
Answer: GI50: > 100 µM; TGI: > 100 µM

Question: What does the source list for `O=C1OCC2=C1C(c1cccc(Br)c1)c1cc3c(cc1N2CCO)CCC3` (configuration not stated)?
Answer: GI50: 0.109 µM; TGI: 6.47 µM

Question: Which GI50 does the source give for `Nc1nc(/C=C\c2ccc([N+](=O)[O-])s2)nc(N2CCCC2)n1` here?
Answer: 2.37 µM

Question: And the TGI?
Answer: 13.6 µM

Question: `Clc1ccc2[nH]cc(-c3nnnn3-c3ccccc3)c2c1` was tested. Which GI50 did it give?
Answer: 53.1 µM

Question: And the TGI?
Answer: > 100 µM

Question: For `CC(=O)OC12C=CC(=O)N1c1ccccc1C(=O)O2` (configuration not stated), which TGI is on record?
Answer: > 100 µM

Question: With `Oc1cccnc1[Se]` as the compound, how does the TGI read?
Answer: > 100 µM

Question: `COc1cc(-c2cc(-c3cc4c([nH]c5ccccc54)c(-c4cc(OC)c(OC)c(OC)c4)n3)cc(-c3ccccc3)n2)cc(OC)c1OC` was tested. Which GI50 did it give?
Answer: 4.96 µM

Question: And the TGI?
Answer: > 100 µM

Question: Which results are given for `CC(C)Oc1ccc2cc(-c3nn(CC4CCNCC4)c4ncnc(N)c34)ccc2c1`?
Answer: GI50: 8.8 µM; TGI: 23.5 µM

Question: For `CS(=O)(=O)CCNCc1nc(-c2ccc3ncnc(Nc4ccc(OCc5cccc(C(F)(F)F)c5)cc4)c3c2)cs1`, which GI50 is on record?
Answer: 12.8 µM

Question: And the TGI?
Answer: > 25 µM

Question: For `CC(C)CC(NC(=O)OCc1ccccc1)C(=O)NC(Cc1ccccc1)C(=O)CCl` (stereo not drawn) (Cbz-Leu-Phe-CH2Cl; configuration not given here), which TGI is on record?
Answer: 9.88 µM

Question: Which results are given for `CCOC(=O)C(Cc1ccc(CCCC(=O)NCCC(=O)Nc2ccc3nc(C)sc3c2)cc1)C(=O)OCC`?
Answer: GI50: > 78 µM; TGI: > 100 µM

Question: `NCCNc1c2c(c(NCCN)c3[nH]ccc13)C(=O)c1ccccc1C2=O` was tested. Which GI50 did it give?
Answer: 0.17 µM

Question: What about the TGI of the same compound?
Answer: 0.662 µM

Question: `CCOC(=O)Nc1ccc(-c2nc(-c3cccc(OCCN4CCOCC4)c3)c(-c3ccnc(Br)c3)[nH]2)cc1` was tested. Which GI50 did it give?
Answer: 4.55 µM

Question: What about the TGI of the same compound?
Answer: > 100 µM

Question: Which results are given for `COc1cc(Cn2c(-c3ccccc3)c(Cl)c3c2-c2oncc2CC3)cc(OC)c1`?
Answer: GI50: 9.61 µM; TGI: > 100 µM

Question: Which results are given for `O=C(CC1(O)C(=O)N(Cc2ccccc2)c2ccc(F)cc21)c1ccc(C(=O)NCC2CCC3(CC2)OOC2(CCCCC2)OO3)cc1` (configuration not stated)?
Answer: GI50: 1.31 µM; TGI: 3.22 µM

Question: Which GI50 does the source give for `COc1cc2c3c(n(C)c(=O)c2cc1OC)-c1cc2c(cc1/C3=C\CN)OCO2` here?
Answer: 0.433 µM

Question: What about the TGI of the same compound?
Answer: > 79.2 µM

Question: Which GI50 does the source give for `CC[C@H]1[C@@H]2C=C[C@@H]3[C@H]4C/C=C\C(=O)NCCC[C@@H]5NC(=O)/C(=C(O)/C=C/[C@@H]4C[C@@H]3[C@H]2C[C@H]1C)C5=O` here?
Answer: 0.448 µM

Question: And the TGI?
Answer: 1.86 µM

Tested on: NCI-H522 lung
Assay: DTP human tumour cell line panel, 48 h

Question: With `O=C(O)Cc1cc(Cl)ccc1O` as the compound, how does the TGI read?
Answer: > 100 µM

Question: How did the GI50 turn out when `O=C(c1ccccc1)c1cc2ccccc2o1` was run?
Answer: 82.1 µM

Question: What about the TGI of the same compound?
Answer: > 100 µM

Question: `O=C(Nc1ccncc1)C(=O)c1cn(S(=O)(=O)c2ccc(F)cc2)c2ccccc12` was tested. Which GI50 did it give?
Answer: 0.823 µM

Question: And the TGI?
Answer: > 100 µM

Question: `COc1ccc(C(=O)/C=C/c2cc(-c3cc(OC)c(OC)c(OC)c3)n[nH]2)cc1OC` was tested. Which GI50 did it give?
Answer: 0.184 µM

Question: And the TGI?
Answer: 0.39 µM

Question: With `C=C(C)[C@@H]1CC[C@]2(C)[C@H](CC=C3[C@@H]4CC(C)(C)CC[C@]4(C(N)=O)CC[C@]32C)[C@@]1(C)CCC#N` as the compound, how does the GI50 read?
Answer: 3.07 µM

Question: And the TGI?
Answer: > 100 µM

Question: With `COc1c(OC[C@H](O)CN2CCOCC2)ccc2c3n(c(=NC(=O)c4cccnc4C)nc12)CCN3` as the compound, how does the GI50 read?
Answer: > 50 µM

Question: And the TGI?
Answer: > 50 µM
